{"source": "the supplement of paper PMC10307832", "assay_in_all_cases": "relative viability (nuclei count vs DMSO), 5 days (fraction); higher = more cells survive", "key": {"HCC-44": {"system": "HCC-44", "summary_of_the_method": "(§1)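 Lung cancer cell lines, seeded in 1536-well plates, were treated the following day by pin tool with a single drug or with five library-drug doses (not always all listed) in √10 steps on top of a fixed anchor-drug dose. Cells were fixed and nuclei stained in one step after 5 days, and nuclei were counted. Relative viability is the nuclei count for treated wells divided by that for vehicle wells, reported as medians of duplicate plates.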"}, "PC-3 [JPC-3]": {"system": "PC-3 [JPC-3]", "summary_of_the_method": "as §1"}, "NCI-H2085": {"system": "NCI-H2085", "summary_of_the_method": "as §1"}, "SW 1573": {"system": "SW 1573", "summary_of_the_method": "as §1"}, "BEN": {"system": "BEN", "summary_of_the_method": "as §1"}, "LCLC-97TM1": {"system": "LCLC-97TM1", "summary_of_the_method": "as §1"}, "EPLC-272H": {"system": "EPLC-272H", "summary_of_the_method": "as §1"}, "NCI-H2087": {"system": "NCI-H2087", "summary_of_the_method": "as §1"}, "H3255": {"system": "H3255", "summary_of_the_method": "as §1"}, "NCI-H1437": {"system": "NCI-H1437", "summary_of_the_method": "as §1"}, "NCI-H647": {"system": "NCI-H647", "summary_of_the_method": "as §1"}, "NCI-H1666": {"system": "NCI-H1666", "summary_of_the_method": "as §1"}, "LOU-NH91": {"system": "LOU-NH91", "summary_of_the_method": "as §1"}, "HOP-62": {"system": "HOP-62", "summary_of_the_method": "as §1"}, "HCC-827": {"system": "HCC-827", "summary_of_the_method": "as §1"}, "COR-L 105": {"system": "COR-L 105", "summary_of_the_method": "as §1"}, "201T": {"system": "201T", "summary_of_the_method": "as §1"}, "NCI-H1975": {"system": "NCI-H1975", "summary_of_the_method": "as §1"}, "NCI-H1395": {"system": "NCI-H1395", "summary_of_the_method": "as §1"}, "EKVX": {"system": "EKVX", "summary_of_the_method": "as §1"}, "NCI-H2126": {"system": "NCI-H2126", "summary_of_the_method": "as §1"}, "LU99A": {"system": "LU99A", "summary_of_the_method": "as §1"}}}
{"compound": "CC(C)Oc1cc(Nc2nc(N[C@@H](C)c3ccc(F)cn3)ncc2Cl)n[nH]1", "note": "[AZ23] + CC1(C)CCC(c2ccc(Cl)cc2)=C(CN2CCN(c3ccc(C(=O)NS(=O)(=O)c4ccc(N[C@H](CCN5CCOCC5)CSc5ccccc5)c(S(=O)(=O)C(F)(F)F)c4)cc3)CC2)C1 [Navitoclax] (partner 0.5 µM)", "values": [{"measurement": "relative viability", "setting": "HCC-44; first compound 0.01 µM", "value": 1.31}, {"measurement": "relative viability", "setting": "HCC-44; first compound 0.03162 µM", "value": 1}, {"measurement": "relative viability", "setting": "HCC-44; first compound 0.3162 µM", "value": 0.927}, {"measurement": "relative viability", "setting": "PC-3 [JPC-3]; first compound 0.01 µM", "value": 0.881}, {"measurement": "relative viability", "setting": "PC-3 [JPC-3]; first compound 0.03162 µM", "value": 0.863}, {"measurement": "relative viability", "setting": "PC-3 [JPC-3]; first compound 0.3162 µM", "value": 0.762}, {"measurement": "relative viability", "setting": "NCI-H2085; first compound 0.01 µM", "value": 1.31}, {"measurement": "relative viability", "setting": "NCI-H2085; first compound 0.03162 µM", "value": 1.27}, {"measurement": "relative viability", "setting": "NCI-H2085; first compound 0.3162 µM", "value": 1.11}, {"measurement": "relative viability", "setting": "SW 1573; first compound 0.01 µM", "value": 0.991}, {"measurement": "relative viability", "setting": "SW 1573; first compound 0.03162 µM", "value": 0.952}, {"measurement": "relative viability", "setting": "SW 1573; first compound 0.3162 µM", "value": 0.833}, {"measurement": "relative viability", "setting": "BEN; first compound 0.01 µM", "value": 0.0781}, {"measurement": "relative viability", "setting": "BEN; first compound 0.03162 µM", "value": 0.0578}, {"measurement": "relative viability", "setting": "BEN; first compound 0.3162 µM", "value": 0.0639}, {"measurement": "relative viability", "setting": "LCLC-97TM1; first compound 0.01 µM", "value": 0.381}, {"measurement": "relative viability", "setting": "LCLC-97TM1; first compound 0.03162 µM", "value": 0.364}, {"measurement": "relative viability", "setting": "LCLC-97TM1; first compound 0.3162 µM", "value": 0.603}, {"measurement": "relative viability", "setting": "EPLC-272H; first compound 0.01 µM", "value": 1.3}, {"measurement": "relative viability", "setting": "EPLC-272H; first compound 0.03162 µM", "value": 1.16}, {"measurement": "relative viability", "setting": "NCI-H2087; first compound 0.01 µM", "value": 1.14}, {"measurement": "relative viability", "setting": "NCI-H2087; first compound 0.03162 µM", "value": 1.12}, {"measurement": "relative viability", "setting": "NCI-H2087; first compound 0.3162 µM", "value": 0.914}, {"measurement": "relative viability", "setting": "H3255; first compound 0.01 µM", "value": 0.514}, {"measurement": "relative viability", "setting": "H3255; first compound 0.03162 µM", "value": 0.677}, {"measurement": "relative viability", "setting": "H3255; first compound 0.3162 µM", "value": 0.556}, {"measurement": "relative viability", "setting": "NCI-H1437; first compound 0.01 µM", "value": 1.33}, {"measurement": "relative viability", "setting": "NCI-H1437; first compound 0.03162 µM", "value": 1.29}, {"measurement": "relative viability", "setting": "NCI-H1437; first compound 0.3162 µM", "value": 1.13}, {"measurement": "relative viability", "setting": "NCI-H647; first compound 0.01 µM", "value": 1.46}, {"measurement": "relative viability", "setting": "NCI-H647; first compound 0.03162 µM", "value": 1.51}, {"measurement": "relative viability", "setting": "NCI-H647; first compound 0.3162 µM", "value": 1.24}, {"measurement": "relative viability", "setting": "NCI-H1666; first compound 0.01 µM", "value": 0.79}, {"measurement": "relative viability", "setting": "NCI-H1666; first compound 0.03162 µM", "value": 0.827}, {"measurement": "relative viability", "setting": "NCI-H1666; first compound 0.3162 µM", "value": 1}, {"measurement": "relative viability", "setting": "LOU-NH91; first compound 0.01 µM", "value": 0.619}, {"measurement": "relative viability", "setting": "LOU-NH91; first compound 0.03162 µM", "value": 0.744}, {"measurement": "relative viability", "setting": "LOU-NH91; first compound 0.3162 µM", "value": 0.746}, {"measurement": "relative viability", "setting": "HOP-62; first compound 0.01 µM", "value": 0.94}, {"measurement": "relative viability", "setting": "HOP-62; first compound 0.03162 µM", "value": 1.21}, {"measurement": "relative viability", "setting": "HOP-62; first compound 0.3162 µM", "value": 1.18}, {"measurement": "relative viability", "setting": "HCC-827; first compound 0.01 µM", "value": 1}, {"measurement": "relative viability", "setting": "HCC-827; first compound 0.03162 µM", "value": 1.04}, {"measurement": "relative viability", "setting": "HCC-827; first compound 0.3162 µM", "value": 0.991}, {"measurement": "relative viability", "setting": "COR-L 105; first compound 0.01 µM", "value": 0.543}, {"measurement": "relative viability", "setting": "COR-L 105; first compound 0.03162 µM", "value": 0.869}, {"measurement": "relative viability", "setting": "COR-L 105; first compound 0.3162 µM", "value": 0.736}, {"measurement": "relative viability", "setting": "201T; first compound 0.01 µM", "value": 1.23}, {"measurement": "relative viability", "setting": "201T; first compound 0.03162 µM", "value": 1.22}, {"measurement": "relative viability", "setting": "201T; first compound 0.3162 µM", "value": 1.17}, {"measurement": "relative viability", "setting": "NCI-H1975; first compound 0.01 µM", "value": 1.24}, {"measurement": "relative viability", "setting": "NCI-H1975; first compound 0.03162 µM", "value": 1.41}, {"measurement": "relative viability", "setting": "NCI-H1975; first compound 0.3162 µM", "value": 1.2}, {"measurement": "relative viability", "setting": "NCI-H1395; first compound 0.03162 µM", "value": 1.12}, {"measurement": "relative viability", "setting": "NCI-H1395; first compound 0.3162 µM", "value": 1.21}, {"measurement": "relative viability", "setting": "EKVX; first compound 0.01 µM", "value": 1.12}, {"measurement": "relative viability", "setting": "EKVX; first compound 0.03162 µM", "value": 1.29}, {"measurement": "relative viability", "setting": "EKVX; first compound 0.3162 µM", "value": 1.02}, {"measurement": "relative viability", "setting": "NCI-H2126; first compound 0.01 µM", "value": 0.835}, {"measurement": "relative viability", "setting": "NCI-H2126; first compound 0.03162 µM", "value": 0.924}, {"measurement": "relative viability", "setting": "NCI-H2126; first compound 0.3162 µM", "value": 0.774}, {"measurement": "relative viability", "setting": "LU99A; first compound 0.01 µM", "value": 0.758}, {"measurement": "relative viability", "setting": "LU99A; first compound 0.03162 µM", "value": 0.82}, {"measurement": "relative viability", "setting": "LU99A; first compound 0.3162 µM", "value": 0.701}]}
